# Data: patent US8247211B2, “Glycopeptide antibiotics” (American Cyanamid Company, priority 2001, dated 2012)
# Numbered stars: 1 amine (or outer) side, 2 acyl side, 3 side chain; on linkers, the order of the positions; unused ones are H or OH. Square brackets hold non-standard residues; d marks the D form. Peptide text beside a SMILES is read from it. * marks the point of attachment. ξ: configuration not given here. X1 = N=C1NCC(C(O)C(N[*:1])C(=O)[*:2])N1C1OC(CO)C(O)C(O)C1O; ξEnduracididine(βξ-OH,4'ξ) = N=C1NCC(C(O)C(N)C(=O)O)N1; X2 = OCC1OC(OC2C(CO)OC(*)C(O)C2O)C(O)C(O)C1O; Diphenylacetyl = O=C(C(c1ccccc1)c1ccccc1)*; ξPhe(βξ-Me) = CC(c1ccccc1)C(N)C(=O)O
# Experiments:
# Assay in all cases: In vitro antibacterial evaluation: minimum inhibitory concentration (MIC), broth dilution method
# Type in all cases: cell-based
# Enterococcus sp. = test system: Enterococcus sp.
# Procedure: (§1) The minimum inhibitory concentration (MIC), the lowest concentration of the antibiotic which inhibits growth of the test organism, is determined by the broth dilution method using Muller-Hinton II […] (Baltimore Biological Laboratories) following the recommendations of the National Committee for Clinical Laboratory Standards [Methods for dilution antimicrobial susceptibility tests for bacteria that grow aerobically, approved standard M7-A2, National Committee for Clinical Laboratory Standards, Villanova, Pa].
# (§2) An inoculum level of 5×10^5 CFU/mL, and a range of antibiotic concentrations (64-0.06 μg/mL) is used. […] The test organisms include a spectrum of Gram-positive bacteria comprised of Staphylococcus sp., Streptococcus sp. and Enterococcus sp. These organisms include recent clinical isolates that are resistant to methicillin, penicillin and/or vancomycin.
# Staphylococcus sp. = conditions: for MIC Coagulase Negative Staphylococcus (GC 4549): strain GC 4549; for MIC Coagulase Negative Staphylococcus (ID-3941): strain ID-3941
# Procedure: as §1, §2
# Escherichia coli = test system: Escherichia coli
# Procedure: as §1, §2
# Streptococcus sp. = test system: Streptococcus sp.
# Procedure: as §1, §2
# [1] = broth dilution, 18 hours at 35° C.
smiles,measurement,setting,value
CCCCCC(=O)OCC1OC(N2C(=N)NCC2C(O)C2NC(=O)C(C(O)C3CNC(=N)N3)NC(=O)C(Cc3ccc(OC4OC(CO)C(OC5OC(CO)C(O)C(O)C5O)C(O)C4O)cc3)NC(=O)C(C(C)c3ccccc3)NC(=O)CNC(=O)C(CO)NC2=O)C(O)C(O)C1O (stereo not shown) [Example 95],MIC Enterococcus faecalis (GC 2242),"Enterococcus sp.; Enterococcus faecalis (GC 2242), broth dilution, 18 hours at 35° C.",>64 µg/mL
same,MIC Enterococcus faecalis (ATCC 29212),Enterococcus sp.; strain ATCC 29212,>64 µg/mL
same,MIC Enterococcus faecalis (GC 2242),Enterococcus sp.; strain GC 2242,>64 µg/mL
same,MIC Enterococcus faecalis (GC 4552),Enterococcus sp.; strain GC 4552,>64 µg/mL
same,MIC Staphylococcus aureus (ATCC 29213),Staphylococcus sp.; [1],>64 µg/mL
same,MIC Staphylococcus aureus (GC 1131),Staphylococcus sp.; [1],>64 µg/mL
same,MIC Staphylococcus aureus (GC 4535),Staphylococcus sp.; [1],>64 µg/mL
same,MIC Staphylococcus aureus SMITH (GC 4536),Staphylococcus sp.; [1],>64 µg/mL
same,MIC Coagulase Negative Staphylococcus (GC 4537),Staphylococcus sp.; strain GC 4537,>64 µg/mL
same,MIC Coagulase Negative Staphylococcus (GC 4538),Staphylococcus sp.; strain GC 4538,>64 µg/mL
same,MIC Coagulase Negative Staphylococcus (GC 4547),Staphylococcus sp.; strain GC 4547,>64 µg/mL
same,MIC Staphylococcus aureus-SMITH (GC 4536),"Staphylococcus sp.; strain SMITH GC 4536, broth dilution, 18 hours at 35° C.",>64 µg/mL
same,MIC Escherichia coli (GC 4559),Escherichia coli; strain GC 4559,>64 µg/mL
same,MIC Escherichia coli (GC 4560),Escherichia coli; strain GC 4560,8 µg/mL
"CC(c1ccccc1)C1NC(=O)CNC(=O)C(COC(=O)C(c2ccccc2)c2ccccc2)NC(=O)C(C(O)C2CNC(=N)N2C2OC(CO)C(O)C(O)C2O)NC(=O)C(C(O)C2CNC(=N)N2)NC(=O)C(Cc2ccc(OC3OC(CO)C(OC4OC(CO)C(O)C(O)C4O)C(O)C3O)cc2)NC1=O (stereo not drawn) [Example 96a, Cyclo[glycyl-β-methylphenylalanyl-O-[4-O-hexopyranosylhexopyranosyl)tyrosyl-3-(2-iminoimidazolidin-4-yl)seryl-3-(3-hexopyranosyl-2-iminoimidazolidin-4-yl)seryl-O-(diphenylacetyl)-seryl]] (cyclo(G[ξPhe(βξ-Me)]Y(X2)[ξEnduracididine(βξ-OH,4'ξ)][X1]S(Diphenylacetyl)); configuration not given here)",MIC Enterococcus faecium (GC 4557),Enterococcus sp.; strain GC 4557,32 µg/mL
same,MIC Coagulase Negative Staphylococcus (GC 4549),Staphylococcus sp.,64 µg/mL
same,MIC Coagulase Negative Staphylococcus (GC 4549),Staphylococcus sp.; [1],64 µg/mL
same,MIC Coagulase Negative Staphylococcus (ID-3941),Staphylococcus sp.,64 µg/mL
same,MIC Coagulase Negative Staphylococcus (ID-3941),Staphylococcus sp.; [1],64 µg/mL
same,MIC Streptococcus agalactiae (GC 4564),Streptococcus sp.; strain GC 4564,32 µg/mL
same,MIC Streptococcus pneumoniae (GC 4565),Streptococcus sp.; strain GC 4565,16 µg/mL
same,MIC Streptococcus pyogenes (ID-3187),Streptococcus sp.; strain ID-3187,32 µg/mL
